This note sets out measurements from US20240239788A1, “SMALL MOLECULE INHIBITORS OF KRAS G12D MUTANT” (Merck Sharp & Dohme LLC, priority 2021, published 2024).

Counter-ions that a name gives are not always drawn.

Assay [1] has as its target KRAS protein containing G12D mutation (Homo sapiens (Human), UniProt P01116, G12D). Briefly: SOS-catalyzed nucleotide exchange assay (GNE), TR-FRET. It counts as biochemical. To be noted: biotinylated KRAS G12D, SOS and GTP, 60-minute incubation. How it is done: Compounds are added to this complex and then after a 60-minute incubation time the mixture is treated with SOS and unlabeled GTP. Small molecule inhibitors stabilize the Bodipy-GDP complex whereas the untreated protein rapidly exchanges Bodipy-GDP for unlabeled GTP resulting in reduced TR-FRET signal.
This solution is referred to as biotinylated KRAS G12D stock solution.

The subject of assay [2] is AsPC-1 cells containing homozygous KRAS-G12D activating mutation. Kind of assay: Cellular phospho-ERK assay (Examples 1a-106). It counts as cell-based. To be noted: Homo sapiens, ASPC1, 2 h, AsPC-1 cells, 2 hours, ratio of p-Erk vs total Erk; read-out: IC50 (nM) pERK (Cell). The source says:
5% CO? overnight. […] Assay plates were read on a EnVision Multimode Plate Reader (PerkinElmer) and the ratio of p-Erk vs total Erk in each well was used as the final readout.

Assay [3] has the same test system. Briefly: Cellular phospho-ERK assay with 10% FBS (Examples 107a-256). In kind it is cell-based. How it is done: 5% CO2 for 2 hours. […] Assay plates were read on a EnVision Multimode Plate Reader (PerkinElmer) and the ratio of p-Erk vs total Erk in each well was used as the final readout.
[4] abbreviates: read-out: IC50 (nM) pERK (cell with FBS 10%), AsPC-1 cells, 10% fetal bovine serum, 2 hours, ratio of p-Erk vs total Erk.
The mark [5] stands for this setting: Homo sapiens, ASPC1, 2 h, read-out: IC50 (nM) pERK (cell with FBS 10%), AsPC-1 cells, 10% fetal bovine serum, 2 hours, ratio of p-Erk vs total Erk.
The mark [6] stands for this setting: read-out: IC50 (nM) pERK (cell with FBS 10%), AsPC-1 cells, 10% fetal bovine serum, 2 hours, ratio of p-Erk vs total Erk, TFA.

As for `Cc1cc2[nH]nc(C)c2c(-c2c(F)cc3c(N4C[C@H]5CC[C@@](C)(C4)N5)nc(OC[C@@H]4C[C@@H](F)CN4C)nc3c2F)c1Cl` [Ex 77, 7-(5-chloro-3,6-dimethyl-1H-indazol-4-yl)-6,8-difluoro-2-(((2S,4R)-4-fluoro-1-methylpyrrolidin-2-yl)methoxy)-4-((1S,5R)-1-methyl-3,8-diazabicyclo[3.2.1]octan-3-yl)quinazoline], the figures for the IC50 in assay [1] and in assay [2] were 792 nM and 5350 nM, respectively.

For `C[C@]12CCC(CN(c3nc(OC[C@@]45CCCN4C[C@H](F)C5)nc4c(F)c(-c5cc(O)cc(Cl)c5C(F)(F)F)c(F)cc34)C1)N2` (single isomer, unassigned) [Ex. 183b], the IC50 in assay [1] was 3.95 nM; in assay [3] (setting [4]), 190 nM.

With `CN(C[C@@]1(COc2nc(N3C[C@H]4CC[C@@](C)(C3)N4)c3cc(F)c(-c4cc(O)cc5cccc(Cl)c45)c(F)c3n2)CC1(F)F)[C@@H]1CCC[C@H]1O` [Ex. 217b], the IC50 came out at 675 nM in assay [1] and 8570 nM in assay [3] (setting [4]).

With `C[C@@]12CC[C@H](CN(c3nc(OC[C@@]45CCCN4C[C@H](F)C5)nc4c(F)c(-c5cc(O)cc6cccc(F)c56)c(F)cc34)C1)N2` (single isomer, unassigned) [Ex. 186a], the IC50 in assay [1] came to 1.49 nM; in assay [3] (setting [4]), 180 nM.

Turning to `Cc1c(C(F)(F)F)c(-c2c(F)cc3c(N4CC5CCC(C4)N5)nc(OC[C@@]45CCCN4C[C@H](F)C5)nc3c2F)c2cn[nH]c2c1F` (single isomer, unassigned) [Ex. 166b], the IC50 in assay [1] was determined as 4.4 nM; in assay [3] (setting [4]), 152 nM.

On to `C[C@]12CC[C@H](CN(c3nc(OC[C@@H]4CCNC4)nc4c(F)c(-c5cc(O)cc6ccccc56)c(Cl)cc34)C1)N2` [Example 122, 4-(6-chloro-8-fluoro-4-((1S,5R)-1-methyl-3,8-diazabicyclo[3.2.1]octan-3-yl)-2-(((R)-pyrrolidin-3-yl)methoxy)quinazolin-7-yl)naphthalen-2-ol, TFA], for which the results for the IC50 in assay [1] and in assay [3] (setting [5]) were 964 nM and 30000 nM, respectively.

For `Cc1cc2[nH]nc(C)c2c(-c2c(F)cc3c(N4CC5CCC(C4)N5)nc(OC[C@@]45CCCN4C[C@H](F)C5)nc3c2F)c1C(F)(F)F` (single isomer, unassigned) [Ex. 128b], the IC50 in assay [1] was determined as 232 nM; in assay [3] (setting [4]) it was 2850 nM.

Consider `N#Cc1c(N)sc2c(F)ccc(-c3c(F)cc4c(N5C[C@H]6CC[C@@H](C5)N6)nc(OC[C@@]56CCCN5C[C@H](F)C6)nc4c3F)c12` (single isomer, unassigned) [Ex. 144b], for which the IC50 in assay [1] came to 20 nM; in assay [3] (setting [4]), 392 nM.

As to `Fc1cc2c(N3C[C@H]4CC[C@@H](C3)N4)nc(OC[C@@]34CCCN3C[C@H](F)C4)nc2c(F)c1-c1ccnc2cccc(Cl)c12` [Ex. 194, 4-((1R,5S)-3,8-diaza-bicyclo[3.2.1]octan-3-yl)-7-(5-chloroquinolin-4-yl)-6,8-difluoro-2-(((2R,7aS)-2-fluoro-tetrahydro-1H-pyrrol-izin-7a(5H)-yl)meth-oxy)quinazoline], the IC50 came to 1920 nM in assay [1] and 11800 nM in assay [3] (setting [5]).

`C[C@]12CC[C@H](CN(c3nc(OC[C@@]45CCCN4C[C@H](F)C5)nc4c(F)c(-c5cc(N)c(F)c6cccc(Cl)c56)c(F)cc34)C1)N2` (single isomer, unassigned) [Ex. 163b]: the values for the IC50 in assay [1] and in assay [3] (setting [4]) were 4740 nM and 35600 nM, respectively.

With “2,2,2-trifluoroacetaldehyde-6-(6-chloro-8-fluoro-2-(((2R,7aS)-2-fluorotetrahydro-1H-pyrrolizin-7a(5H)-yl)methoxy)-4-((1S,5R)-1-methyl-3,8-diazabicyclo[3.2.1]octan-3-yl)quinazolin-7-yl)-4-methyl-5-(trifluoromethyl)pyridin-2-amine (1/1) [Ex. 238b]”, the IC50 in assay [1] turned out to be 2710 nM; in assay [3] (setting [4]), 21100 nM.

`Cc1cc2[nH]nc(C)c2c(-c2c(F)cc3c(N4CC5CCC(C4)N5)nc(OC[C@@]45CCCN4C[C@H](F)C5)nc3c2F)c1OC(F)(F)F` (single isomer, unassigned) [Ex. 232b]: the IC50 in assay [1] was 5.9 nM; in assay [3] (setting [4]), 155 nM.

`COCCNC[C@@]1(COc2nc(N3CC4CC[C@@](C)(C3)N4)c3cc(F)c(-c4c(C(F)(F)F)c(C)cc5[nH]ncc45)c(F)c3n2)CC1(F)F` (single isomer, unassigned) [Ex. 213]: the IC50 came out at 4460 nM in assay [1] and 25600 nM in assay [3] (setting [5]).

Take `C[C@]12CCC(CN(c3nc(OC[C@@]45CCCN4C[C@H](F)C5)nc4c(F)c(-c5cc(O)cc(Cl)c5C(F)(F)F)c(F)cc34)C1)N2` (single isomer, unassigned) [Ex. 183a]: the IC50 in assay [1] is 347 nM; in assay [3] (setting [4]), 6070 nM.

Turning to `C[C@@]12CC[C@H](CN(c3nc(OC[C@@]45CCCN4C[C@H](F)C5)nc4c(F)c(-c5cccc6ccc(F)c(F)c56)c(F)cc34)C1)N2` [compound 197, 7-(7,8-difluoronaph-thalen-1-yl)-6,8-difluoro-2-(((2R,7aS)-2-fluorotetrahydro-1H-pyrrolizin-7a(5H)-yl)-methoxy)-4-((1S,5R)-1-methyl-3,8-diaza-bicyclo[3.2.1]octan-3-yl)quinazoline], the values for the IC50 in assay [1] and in assay [3] (setting [5]) were 52.4 nM and 4470 nM, respectively.

Turning to `C[C@]12CCC(CN(c3nc(OCC45CCCN4CC(C(F)F)C5)nc4c(F)c(-c5cc(O)cc6cccc(Cl)c56)c(F)cc34)C1)N2` (single isomer, unassigned) [Ex. 173-1a], the IC50 in assay [1] is 8.43 nM; in assay [3] (setting [4]) it was 1570 nM.

Turning to `C[C@]12CC[C@H](CN(c3nc(OC[C@@]45CCCN4C[C@H](F)C5)nc4c(F)c(-c5cncc6cccc(Cl)c56)c(F)cc34)C1)N2` (single isomer, unassigned) [Ex. 167], the values for the IC50 in assay [1] and in assay [3] (setting [5]) were 414 nM and 8440 nM, respectively.

Consider `C#Cc1cccc2cc(O)c(C)c(-c3c(F)cc4c(N5CC6CC[C@@](C)(C5)N6)nc(OC[C@@]56CCCN5C[C@H](F)C6)nc4c3F)c12` (single isomer, unassigned) [Ex. 204b], for which the IC50 in assay [1] is 23.4 nM; in assay [3] (setting [4]) it was 443 nM.

`Cc1nc(N)c(F)c(-c2c(F)cc3c(N4CC5CCC(C4)N5)nc(OC[C@@]45CCCN4C[C@H](F)C5)nc3c2F)c1C(F)(F)F` (single isomer, unassigned) [Ex. 151a]: the IC50 in assay [1] was found to be 1930 nM; in assay [3] (setting [4]), 3950 nM.

Regarding `CCc1cccc2cc(O)cc(-c3c(F)cc4c(N5CC6CC[C@@](C)(C5)N6)nc(OC[C@@]56CCCN5C[C@H](F)C6)nc4c3F)c12` (single isomer, unassigned) [Ex. 178b], the IC50 in assay [1] was determined as 210 nM; in assay [3] (setting [4]), 4580 nM.

`C#Cc1cccc2cccc(-c3c(F)cc4c(N5CC6(C)CCC(C)(C5)N6)nc(OC[C@@]56CCCN5C[C@H](F)C6)nc4c3F)c12` (single isomer, unassigned) [Ex. 190a, TFA]: the IC50 is 2510 nM in assay [1] and 30000 nM in assay [3] (setting [6]).

On to `Oc1cc(-c2c(F)cc3c(N4CC5CCC(C4)N5)nc(OC[C@@]45CCCN4C[C@H](F)C5)nc3c2F)c2c(Cl)cccc2c1` (single isomer, unassigned) [Ex. 160a], for which the figures for the IC50 in assay [1] and in assay [3] (setting [4]) were 3.3 nM and 882 nM, respectively.

For `Cc1cc2[nH]nc(C)c2c(-c2c(F)cc3c(N4C[C@H]5CC[C@@H](C4)N5)nc(OCC4(CN5CCOCC5)CC4)nc3c2F)c1OC(F)F` [Ex. 127, 4-((1-(((4-((1R,5S)-3,8-diazabicyclo[3.2.1]octan-3-yl)-7-(5-(difluoromethoxy)-3,6-dimethyl-1H-indazol-4-yl)-6,8-difluoroquinazolin-2-yl)oxy)methyl)cyclopropyl)methyl) morpholine], the IC50 in assay [1] stood at 39 nM; in assay [3] (setting [5]), 3600 nM.

Turning to `C#Cc1cccc2cc(O)c(F)c(-c3c(F)cc4c(N5CC6CC[C@@](C)(C5)N6)nc(OC[C@@]56CCCN5C[C@H](F)C6)nc4c3F)c12` (single isomer, unassigned) [Ex. 192a], the values for the IC50 in assay [1] and in assay [3] (setting [4]) were 1.17 nM and 114 nM, respectively.

Consider `Nc1cc(Cl)c(C(F)(F)F)c(-c2c(Cl)cc3c(N4CC5CCC(C4)N5)nc(OC[C@@]45CCCN4C[C@H](F)C5)nc3c2F)n1` (single isomer, unassigned) [Ex. 154a], for which the values for the IC50 in assay [1] and in assay [3] (setting [5]) were 1.1 nM and 52.1 nM, respectively.

For the compound `C[C@]12CCC(CN(c3nc(OC[C@@]45CCCN4C[C@H](F)C5)nc4c(F)c(-c5cc(O)cc6cc(F)cc(Cl)c56)c(F)cc34)C1)N2` (single isomer, unassigned) [Ex. 180a], the IC50 was 6.48 nM in assay [1] and 1040 nM in assay [3] (setting [4]).

As to `C[C@]12CCC(CN(c3nc(OC[C@@]45CCCN4C[C@H](F)C5)nc4c(F)c(-c5cc(O)cn6ncc(Cl)c56)c(F)cc34)C1)N2` (single isomer, unassigned) [Ex. 230b, TFA], the values for the IC50 in assay [1] and in assay [3] (setting [6]) were 162 nM and 9100 nM, respectively.
